Data published in ChEMBL document CHEMBL1141629, “Kinase-likeness and kinase-privileged fragments: toward virtual polypharmacology” (J Med Chem, 2008).
pIC50: −log10 of the molar value.

Legend:
[1] = biological target: T1, Serine/threonine-protein kinase PAK 1 (Homo sapiens, UniProt Q13153); assay: Inhibition of PAK1
[2] = biological target: T1, Serine/threonine-protein kinase PAK 1; assay: Inhibition of PAK1 at 31 uM
[3] = biological target: Ribosomal protein S6 kinase beta-1 (Homo sapiens) (UniProt P23443); assay: Inhibition of p70S6K at 33 uM
Ribosomal protein S6 kinase beta-1 (Homo sapiens), sequence (P23443 whole entry, looked up): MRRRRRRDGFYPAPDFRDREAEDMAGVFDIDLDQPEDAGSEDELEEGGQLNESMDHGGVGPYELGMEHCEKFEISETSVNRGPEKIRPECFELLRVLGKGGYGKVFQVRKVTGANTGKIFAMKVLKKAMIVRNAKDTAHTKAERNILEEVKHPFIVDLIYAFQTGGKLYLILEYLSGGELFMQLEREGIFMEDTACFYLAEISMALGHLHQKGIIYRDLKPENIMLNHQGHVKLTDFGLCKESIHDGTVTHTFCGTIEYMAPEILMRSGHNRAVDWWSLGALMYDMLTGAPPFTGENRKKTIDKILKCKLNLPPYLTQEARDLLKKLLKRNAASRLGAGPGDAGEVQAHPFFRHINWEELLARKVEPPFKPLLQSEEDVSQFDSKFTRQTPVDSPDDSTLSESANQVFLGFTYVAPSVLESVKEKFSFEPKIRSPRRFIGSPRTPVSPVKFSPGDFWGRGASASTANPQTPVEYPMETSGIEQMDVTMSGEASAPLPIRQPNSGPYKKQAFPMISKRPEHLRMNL

[4] = biological target: T2, Serine/threonine-protein kinase Sgk1 (Homo sapiens) (UniProt O00141); assay: Inhibition of SGK1 at 33 uM
T2 sequence (whole entry): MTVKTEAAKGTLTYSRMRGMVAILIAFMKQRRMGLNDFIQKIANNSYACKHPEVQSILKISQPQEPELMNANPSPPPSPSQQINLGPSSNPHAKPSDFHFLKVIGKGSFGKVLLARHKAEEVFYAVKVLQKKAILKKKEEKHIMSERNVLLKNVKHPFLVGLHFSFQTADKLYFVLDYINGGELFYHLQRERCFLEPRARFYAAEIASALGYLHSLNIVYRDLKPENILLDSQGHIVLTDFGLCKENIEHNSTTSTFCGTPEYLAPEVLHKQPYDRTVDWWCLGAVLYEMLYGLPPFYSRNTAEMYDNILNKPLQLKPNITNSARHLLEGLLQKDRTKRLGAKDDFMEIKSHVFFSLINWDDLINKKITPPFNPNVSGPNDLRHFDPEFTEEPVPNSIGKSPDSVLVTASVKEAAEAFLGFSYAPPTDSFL

T1 sequence (Q13153 whole entry): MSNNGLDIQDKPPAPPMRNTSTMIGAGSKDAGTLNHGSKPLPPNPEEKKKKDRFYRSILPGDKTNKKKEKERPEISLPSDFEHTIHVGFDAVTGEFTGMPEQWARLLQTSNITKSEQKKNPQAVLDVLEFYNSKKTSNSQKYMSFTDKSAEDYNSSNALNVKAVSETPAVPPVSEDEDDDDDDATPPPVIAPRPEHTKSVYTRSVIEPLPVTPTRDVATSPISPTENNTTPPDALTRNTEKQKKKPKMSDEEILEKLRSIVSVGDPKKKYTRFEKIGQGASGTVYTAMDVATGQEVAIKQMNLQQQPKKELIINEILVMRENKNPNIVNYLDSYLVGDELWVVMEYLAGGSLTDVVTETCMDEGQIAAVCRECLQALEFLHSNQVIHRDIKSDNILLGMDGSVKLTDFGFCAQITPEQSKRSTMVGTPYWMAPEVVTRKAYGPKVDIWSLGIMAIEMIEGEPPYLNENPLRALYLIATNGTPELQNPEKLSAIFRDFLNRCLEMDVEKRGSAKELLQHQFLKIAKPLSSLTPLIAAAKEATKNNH

SMILES	pIC50 [1]	other results
c1nc(NC2CCCC2)c2nc[nH]c2n1	4.74	–
Nc1nc2[nH]cnc2c(=S)[nH]1	–	inhibition [2]: 31%
c1nc2nc(NC3CCCCC3)ncc2[nH]1	4.51	–
CC1CC(Nc2ncnc3nc[nH]c23)CC(C)(C)C1 (configuration not stated)	4.64	–
Nc1nc(N)c2nc(-c3ccccc3)c(N)nc2n1	–	inhibition [3]: 95%; inhibition [4]: 94%; inhibition [2]: 100%
CC(Sc1ncnc2nc[nH]c12)c1ccccc1Cl (configuration not stated)	4.64	–
CCCCCSc1ncnc2nc[nH]c12	4.42	–
COc1c2occc2cc2ccc(=O)oc12	–	inhibition [3]: 64%
O=C(O)c1cc(/N=N/c2ccc(S(=O)(=O)Nc3ccccn3)cc2)ccc1O	–	inhibition [4]: 70%
c1nc(N2CCOCC2)c2nc[nH]c2n1	4.74	–
